In ChEMBL document CHEMBL1201862, “PubChem BioAssay data set” (2004):
Active and inactive are the calls of the source.

Experiments:
[1] = molecular target: Cystic fibrosis transmembrane conductance regulator/Golgi-associated PDZ and coiled-coil motif-containing protein (Homo sapiens, UniProt P13569+Q9HD26); test: CAL PDZ peptide-binding inhibitors, dose response, biochemical, fluorescence polarization, Cerulean-tagged CAL PDZ, cherry-picks (AID 504773)
HeLa = test: HeLa cell cytotoxicity, dose response, cytotoxicity control, 24 h, cherry-picked samples (AID 504726); format: functional, cell-based; conditions: Homo sapiens;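 also: potency for cytotoxicity as loss of luminescence signal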
ORF 73 = molecular target: T1, ORF 73 (Human herpesvirus 8, UniProt O40947); test: inhibitors of C-LANA binding to LBS DNA, dose response, biochemical, fluorescence polarization, cherry-picked samples (AID 504725); parameters: species or system Human gammaherpesvirus 8;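 also: fluorescence polarization of a labeled DNA duplex reporting LANA DNA binding; potency is for inhibitors that block LANA binding to the DNA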
T1 sequence (O40947 whole entry): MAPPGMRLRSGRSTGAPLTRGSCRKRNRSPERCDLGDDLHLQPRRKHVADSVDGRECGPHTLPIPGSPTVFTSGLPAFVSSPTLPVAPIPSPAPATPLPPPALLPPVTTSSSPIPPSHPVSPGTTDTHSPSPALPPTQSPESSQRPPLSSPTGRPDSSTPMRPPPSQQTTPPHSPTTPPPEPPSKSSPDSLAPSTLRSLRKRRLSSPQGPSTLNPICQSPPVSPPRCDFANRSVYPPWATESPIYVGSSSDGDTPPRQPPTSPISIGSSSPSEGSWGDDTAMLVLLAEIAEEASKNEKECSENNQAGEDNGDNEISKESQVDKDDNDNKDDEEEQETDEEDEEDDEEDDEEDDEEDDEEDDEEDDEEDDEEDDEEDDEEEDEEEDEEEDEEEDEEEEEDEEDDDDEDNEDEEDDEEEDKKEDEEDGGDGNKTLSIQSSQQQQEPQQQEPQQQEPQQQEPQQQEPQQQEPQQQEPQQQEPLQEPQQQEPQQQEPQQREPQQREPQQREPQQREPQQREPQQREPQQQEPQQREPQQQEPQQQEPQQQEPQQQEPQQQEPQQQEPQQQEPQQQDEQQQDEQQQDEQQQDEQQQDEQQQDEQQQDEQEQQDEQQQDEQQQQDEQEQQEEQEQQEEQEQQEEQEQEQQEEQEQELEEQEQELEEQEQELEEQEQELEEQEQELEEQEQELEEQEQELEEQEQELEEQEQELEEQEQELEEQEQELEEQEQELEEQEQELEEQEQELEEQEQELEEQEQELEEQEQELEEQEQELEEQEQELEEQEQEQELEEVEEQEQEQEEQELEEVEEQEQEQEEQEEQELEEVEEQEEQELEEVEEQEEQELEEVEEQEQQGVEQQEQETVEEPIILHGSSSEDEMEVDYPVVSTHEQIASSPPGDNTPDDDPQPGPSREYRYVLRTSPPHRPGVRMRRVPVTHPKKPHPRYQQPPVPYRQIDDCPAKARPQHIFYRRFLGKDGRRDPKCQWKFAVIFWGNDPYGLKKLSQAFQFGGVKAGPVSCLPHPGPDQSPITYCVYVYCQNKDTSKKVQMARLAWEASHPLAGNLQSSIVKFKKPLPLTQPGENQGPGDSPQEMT

[2] = molecular target: Eukaryotic translation initiation factor 4E (Mus musculus, UniProt P63073); test: eIF4E–eIF4G protein interaction inhibitors, dose response, biochemical, TR-FRET (AID 855); format: functional;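 also: potency for disrupting eIF4E binding to eIF4GI seen as loss of FRET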
Chain of Eukaryotic translation initiation factor 4E (P63073 whole entry): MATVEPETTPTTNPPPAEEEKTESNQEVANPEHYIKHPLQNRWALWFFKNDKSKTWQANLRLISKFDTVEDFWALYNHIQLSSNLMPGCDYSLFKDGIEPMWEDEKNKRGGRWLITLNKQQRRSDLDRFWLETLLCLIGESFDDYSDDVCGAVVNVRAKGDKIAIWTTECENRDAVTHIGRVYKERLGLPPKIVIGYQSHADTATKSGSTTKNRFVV

Nonstructural protein 1 = Nonstructural protein 1 (Influenza A virus, UniProt Q194T2); format: functional, Influenza A virus (A/California/07/2009(H1N1))
Chain of Nonstructural protein 1 (Q194T2 whole entry): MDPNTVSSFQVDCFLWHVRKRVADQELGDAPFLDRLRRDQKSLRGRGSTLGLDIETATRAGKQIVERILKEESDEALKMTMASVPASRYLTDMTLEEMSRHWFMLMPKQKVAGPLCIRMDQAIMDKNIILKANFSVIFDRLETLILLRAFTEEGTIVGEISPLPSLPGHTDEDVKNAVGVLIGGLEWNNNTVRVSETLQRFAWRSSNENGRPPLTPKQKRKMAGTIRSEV

Chain of Cystic fibrosis transmembrane conductance regulator/Golgi-associated PDZ and coiled-coil motif-containing protein (P13569 whole entry, other chains not shown): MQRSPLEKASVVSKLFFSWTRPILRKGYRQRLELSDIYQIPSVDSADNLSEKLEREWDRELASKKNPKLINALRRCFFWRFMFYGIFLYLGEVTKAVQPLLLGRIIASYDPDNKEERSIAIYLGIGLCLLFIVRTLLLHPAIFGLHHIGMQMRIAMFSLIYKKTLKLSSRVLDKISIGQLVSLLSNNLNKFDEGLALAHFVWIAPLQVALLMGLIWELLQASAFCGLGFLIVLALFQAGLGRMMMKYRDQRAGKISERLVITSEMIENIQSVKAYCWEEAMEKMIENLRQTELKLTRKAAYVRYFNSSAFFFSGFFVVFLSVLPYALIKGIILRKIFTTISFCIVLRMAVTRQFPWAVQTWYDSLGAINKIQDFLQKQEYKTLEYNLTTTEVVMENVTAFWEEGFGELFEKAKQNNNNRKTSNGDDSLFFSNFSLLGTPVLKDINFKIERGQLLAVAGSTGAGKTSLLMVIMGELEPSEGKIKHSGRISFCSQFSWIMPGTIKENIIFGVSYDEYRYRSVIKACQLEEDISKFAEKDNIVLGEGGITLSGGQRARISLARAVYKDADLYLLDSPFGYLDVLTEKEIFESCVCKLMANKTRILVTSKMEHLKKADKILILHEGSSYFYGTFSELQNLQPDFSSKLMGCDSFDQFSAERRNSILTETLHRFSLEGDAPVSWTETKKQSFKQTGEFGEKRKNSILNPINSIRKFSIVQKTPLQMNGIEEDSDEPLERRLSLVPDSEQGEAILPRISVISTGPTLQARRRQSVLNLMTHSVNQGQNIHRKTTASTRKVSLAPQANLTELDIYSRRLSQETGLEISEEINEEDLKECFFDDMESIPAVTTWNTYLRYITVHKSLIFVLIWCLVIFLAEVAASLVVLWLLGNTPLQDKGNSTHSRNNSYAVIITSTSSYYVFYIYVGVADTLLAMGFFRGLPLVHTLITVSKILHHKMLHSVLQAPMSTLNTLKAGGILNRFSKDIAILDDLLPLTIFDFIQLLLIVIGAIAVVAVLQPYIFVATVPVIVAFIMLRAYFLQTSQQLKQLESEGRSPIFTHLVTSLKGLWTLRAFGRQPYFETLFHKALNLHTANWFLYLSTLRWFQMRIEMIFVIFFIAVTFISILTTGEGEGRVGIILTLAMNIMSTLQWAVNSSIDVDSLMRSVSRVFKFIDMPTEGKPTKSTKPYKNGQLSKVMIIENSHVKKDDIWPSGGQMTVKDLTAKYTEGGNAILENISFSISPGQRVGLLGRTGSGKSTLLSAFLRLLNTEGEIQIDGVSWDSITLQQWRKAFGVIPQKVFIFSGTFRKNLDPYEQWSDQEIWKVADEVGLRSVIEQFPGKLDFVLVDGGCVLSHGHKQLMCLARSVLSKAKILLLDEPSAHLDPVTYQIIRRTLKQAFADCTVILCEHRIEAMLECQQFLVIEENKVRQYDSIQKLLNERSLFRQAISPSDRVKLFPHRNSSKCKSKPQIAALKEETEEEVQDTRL

COc1ccc(OC)c(-c2c3cc(O)c(=O)cc-3oc3cc(O)c(O)cc23)c1
active: AC50 [1] 13.3 µM | AC50 (HeLa) 135 µM | AC50 (ORF 73) 1.56 µM | IC50 [2] 15.7 µM | IC50 (Nonstructural protein 1) 20.3 µM
